In ChEMBL document CHEMBL2074555 (Biochem Pharmacol, 1992):

The molecules below were run against ATP-dependent translocase ABCB1 (Mus musculus, UniProt P21447) (assay: TP_TRANSPORTER: increase in Vinblastine intracellular accumulation in F4-6RADR cells).
Format: functional, cell-based

ATP-dependent translocase ABCB1, sequence (P21447 whole entry): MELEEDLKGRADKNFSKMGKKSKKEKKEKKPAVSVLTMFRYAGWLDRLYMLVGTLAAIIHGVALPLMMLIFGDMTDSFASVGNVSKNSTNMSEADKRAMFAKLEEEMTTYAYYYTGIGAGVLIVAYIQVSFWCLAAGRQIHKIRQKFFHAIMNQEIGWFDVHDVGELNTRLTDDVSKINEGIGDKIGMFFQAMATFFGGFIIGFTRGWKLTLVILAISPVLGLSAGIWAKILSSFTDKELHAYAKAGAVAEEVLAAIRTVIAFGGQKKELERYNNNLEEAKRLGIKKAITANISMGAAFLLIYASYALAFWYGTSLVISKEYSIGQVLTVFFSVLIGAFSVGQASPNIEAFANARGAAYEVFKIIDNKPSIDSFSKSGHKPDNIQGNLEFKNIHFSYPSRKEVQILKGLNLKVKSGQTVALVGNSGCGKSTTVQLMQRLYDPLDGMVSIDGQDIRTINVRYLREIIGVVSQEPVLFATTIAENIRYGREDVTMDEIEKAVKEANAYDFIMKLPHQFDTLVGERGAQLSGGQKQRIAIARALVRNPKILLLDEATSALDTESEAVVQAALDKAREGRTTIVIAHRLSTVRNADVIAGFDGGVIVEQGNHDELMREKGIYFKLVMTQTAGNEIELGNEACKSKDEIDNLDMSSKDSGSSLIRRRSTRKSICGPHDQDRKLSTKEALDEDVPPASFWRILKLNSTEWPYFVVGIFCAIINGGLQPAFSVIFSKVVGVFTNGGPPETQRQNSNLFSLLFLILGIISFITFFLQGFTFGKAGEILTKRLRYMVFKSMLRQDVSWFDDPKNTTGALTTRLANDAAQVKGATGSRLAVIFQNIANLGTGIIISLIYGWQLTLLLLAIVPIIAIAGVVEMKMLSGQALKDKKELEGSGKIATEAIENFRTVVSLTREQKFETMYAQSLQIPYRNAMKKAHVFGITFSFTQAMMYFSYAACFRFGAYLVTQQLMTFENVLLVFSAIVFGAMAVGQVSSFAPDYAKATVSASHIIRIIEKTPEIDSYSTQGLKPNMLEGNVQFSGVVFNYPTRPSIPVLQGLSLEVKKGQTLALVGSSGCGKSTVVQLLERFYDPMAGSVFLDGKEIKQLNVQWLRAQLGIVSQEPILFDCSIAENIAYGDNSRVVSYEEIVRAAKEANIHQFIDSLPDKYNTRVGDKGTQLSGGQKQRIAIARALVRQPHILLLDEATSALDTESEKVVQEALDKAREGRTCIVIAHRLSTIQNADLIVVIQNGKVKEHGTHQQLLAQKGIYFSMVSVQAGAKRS

Activity, inhibitor [+]:
COc1cccc(CCN(C)CCCC(C#N)(c2ccc(OC)c(OC)c2)C(C)C)c1 (stereo not drawn), CC(C)C(C#N)(CCCN(C)CCc1ccccc1)c1ccccc1 (stereo not drawn) [EMOPAMIL], CCOC(=O)C1=C(C)NC(C)=C(C(=O)OC)C1c1cccc(Cl)c1Cl (stereo not drawn) [FELODIPINE], COc1ccc(CCN(C)CCCC(C#N)(c2cc(OC)c(OC)c(OC)c2)C(C)C)cc1OC (stereo not drawn) [GALLOPAMIL], COC(=O)C1=C(C)NC(C)=C(C(=O)OC(C)C)C1c1cccc2nonc12 (stereo not drawn) [ISRADIPINE], COC(=O)C1=C(C)NC(C)=C(C(=O)OCCCN2CCC(c3ccccc3)(c3ccccc3)CC2)[C@H]1c1cccc([N+](=O)[O-])c1 [NIGULDIPINE], COCCOC(=O)C1=C(C)NC(C)=C(C(=O)OC(C)C)C1c1cccc([N+](=O)[O-])c1 (stereo not drawn) [NIMODIPINE], CCOC(=O)C1=C(C)NC(C)=C(C(=O)OC)C1c1cccc([N+](=O)[O-])c1 (stereo not drawn) [NITRENDIPINE]
